Measured values published in paper PMC4062389, “LASSBio-1135: A Dual TRPV1 Antagonist and Anti-TNF-Alpha Compound Orally Effective in Models of Inflammatory and Neuropathic Pain” (PLoS ONE, 2014).

Target: TRPV1 (Rattus norvegicus, UniProt O35433)
Assay: two-electrode voltage clamp in Xenopus oocytes injected with rat TRPV1 cRNA; inhibition of […] capsaicin current
Assay type: cell-based

Chain of TRPV1 (O35433 whole entry): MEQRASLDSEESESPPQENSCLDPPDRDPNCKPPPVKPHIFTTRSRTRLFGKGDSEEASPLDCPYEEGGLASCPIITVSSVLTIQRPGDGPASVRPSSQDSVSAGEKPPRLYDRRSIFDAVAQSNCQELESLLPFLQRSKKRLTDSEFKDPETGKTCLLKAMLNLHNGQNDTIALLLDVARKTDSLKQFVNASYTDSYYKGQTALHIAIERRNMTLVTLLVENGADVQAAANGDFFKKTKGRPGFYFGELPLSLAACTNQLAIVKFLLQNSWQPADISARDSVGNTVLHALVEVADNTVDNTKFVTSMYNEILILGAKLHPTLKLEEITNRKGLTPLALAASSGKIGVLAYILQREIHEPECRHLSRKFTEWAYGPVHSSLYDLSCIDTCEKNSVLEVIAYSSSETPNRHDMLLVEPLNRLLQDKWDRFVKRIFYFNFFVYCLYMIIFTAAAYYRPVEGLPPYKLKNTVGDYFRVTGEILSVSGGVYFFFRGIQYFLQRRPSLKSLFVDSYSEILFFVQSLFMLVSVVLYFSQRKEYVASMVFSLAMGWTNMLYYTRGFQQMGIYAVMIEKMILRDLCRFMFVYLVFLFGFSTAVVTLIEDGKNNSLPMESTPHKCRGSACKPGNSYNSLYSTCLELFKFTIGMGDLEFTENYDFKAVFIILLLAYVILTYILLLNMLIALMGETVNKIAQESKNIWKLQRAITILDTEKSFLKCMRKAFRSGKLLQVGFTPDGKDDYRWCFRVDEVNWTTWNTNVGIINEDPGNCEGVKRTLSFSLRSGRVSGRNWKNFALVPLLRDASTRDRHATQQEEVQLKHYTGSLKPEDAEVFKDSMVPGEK

## LASSBio-1135
  IC50: 580 nM
